# In patent US12163950B2, “Synthetic odorant receptors” (Duke University, priority 2018, dated 2024):
# How the values were obtained:
# [1] = system: Mut-OR10; test: cAMP-mediated luciferase reporter gene assay, triple Arg mutant of consensus OR10; assay type: cell-based, human; conditions: FIG. 10F
# Procedure: (§1) FIG. 10A-B. Consensus OR1, OR6, OR10 and OR52 are functionally expressed in Hana3A cells, as indicated by cAMP-mediated luciferase assays. (A) Heatmap of ORs responses to 30 uM odorant selected from a previously screened panel of 320 compounds. Luciferase activity was normalized for each OR by setting as 1.0 the highest response value, and 0 as the lowest response value. (B) Dose-response curve of consensus ORs to candidate ligands ranging from 0 to 316 uM or 1 mM. Cells transfected with pCI vector were used as a negative control. Luciferase activity was normalized by setting as 1.0 the highest response value, and 0 as the lowest response value of each experiment. n=3, error bars indicate SEM.
# (§2) FIG. 10C-D-E-F. Improvement of OR expression by mutations in TM1 and Helix 8. (C) Homology model of hOR10. Each TM is highlighted in a colored tubes and residues D511.60, S521.61, H531.62 and E294H8 are represented in licorice (pink). (D) Zoom on the residues 1.60, 1.61, 1.62, H8 mutated for hOR1 (red), hOR10 (blue), hOR51 (green) and hOR52 (pink). […]
# (§3) The consensus ORs already show a clear increase of cell surface expression in comparison to naturally-occurring ORs. […] Experiments evaluated the cell surface expression of the consensus ORs with their corresponding triple Arg mutants, including a well-studied non-olfactory class A GPCR, the muscarinic 3 receptor (M3) (FIG. 10E). […]
# [2] = system: Mut-OR52; test: cAMP-mediated luciferase reporter gene assay, triple Arg mutant of consensus OR52; assay type: cell-based, human; conditions: FIG. 10F
# Procedure: as §1, §2, §3
SMILES,response of Mut-OR10 compared to consensus OR10 [1],response of Mut-OR10 to its agonist (luciferase activity) ([1]; dose-response),response of Mut-OR52 to its agonist (luciferase activity) [2]
"CC(=O)/C=C/C1=C(C)CCCC1(C)C [0-ionone, β-ionone]",diminished compared to OR10,responded,–
CCCCCCCCC(=O)O [nonanoic acid],–,–,responded
